From patent US9624170B2, “4-(piperrazin-1-yl)-pyrrolidin-2-one compounds as monoacylglycerol lipase (MAGL) inhibitors” (TAKEDA PHARMACEUTICAL COMPANY LIMITED, priority 2013, dated 2017) come the findings set out here.

The structures appear in SMILES notation.

One experiment concerns the target T1, human MAGL (His-hMAGL) (Homo sapiens, UniProt Q99685).
T1 construct: made in house; host or cells: Escherichia coli BL21(DE3)
T1 sequence (Q99685 1-303): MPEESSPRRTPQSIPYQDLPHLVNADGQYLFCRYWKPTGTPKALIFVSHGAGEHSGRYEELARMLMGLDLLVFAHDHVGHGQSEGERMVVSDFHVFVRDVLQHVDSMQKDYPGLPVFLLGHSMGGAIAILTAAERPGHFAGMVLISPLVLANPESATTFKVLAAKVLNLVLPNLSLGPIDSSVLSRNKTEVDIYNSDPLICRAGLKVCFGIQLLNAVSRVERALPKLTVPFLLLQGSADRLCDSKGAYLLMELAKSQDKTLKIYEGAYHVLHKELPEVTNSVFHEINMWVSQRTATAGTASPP
Put plainly: Measurement of MAGL inhibitory activity by mass spectrometry. The format is biochemical. Conditions: 10 μM test compound; substrate 2-arachidonylglycerol, arachidonic acid by RapidFire-mass spectrometry. The procedure: Thereafter, to each well was added 150 μM 2-arachidonylglycerol (Tocris Bioscience) by 5 μL, and the mixture was incubated at room temperature for 10 min. Then, 2% formic acid (Wako Pure Chemical Industries, Ltd.) was added by 10 μL to discontinue the reaction. Furthermore, acetonitrile (50 μL) containing 3 μM arachidonic acid-d8 (Cayman Chemical Company) was added and the mixture was stirred. The amount of arachidonic acid in the obtained enzyme reaction mixture was calculated by measuring by RapidFire-mass spectrometry and correcting by the amount of arachidonic acid-d8. High Throughput online solid phase extraction was performed using RapidFire 300TM system (Agilent Technologies, Inc.). […] The injection needle was washed with ultrapure water (500 millisecond) and acetonitrile (500 millisecond) to minimize carry-over. […] The RapidFire300 system was controlled by RapidFire UI software version 3.6 (Agilent Technologies, Inc.). The mass spectrometry of the resultant product was performed using […] triple quadrupole mass spectrometer (AB SCIEX) equipped with an electrospray ion sauce (Turbolon SprayTM) in a negative selected reaction monitoring (SRM) mode. The conditions of SRM are shown below. The parameters of the instrument were optimized as follows: capillary temperature 600° C., ion spray voltage -4.5 kV, collision gas 8, curtain gas 15 psi, ion source gas 1 60 psi, ion source gas 2 60 psi. The mass spectrometer was controlled by AnalystTM software version 1.5.1 (AB SCIEX). The peak area integration was analyzed using RapidFire integrator software version 3.6 (Agilent Technologies, Inc.). MAGL inhibitory rate (%) was calculated according to the following calculation formula.
Usually inhibition stands for the drop in the measured response relative to a control, in per cent. For `CC(=O)Nc1ccc(Nc2cccc(N3CC(N4CCN(C(=O)c5nccs5)CC4)CC3=O)c2)cc1` (stereo not shown) [Example 116, N-(4-((3-(2-oxo-4-(4-(1,3-thiazol-2-ylcarbonyl)piperazin-1-yl)pyrrolidin-1-yl)phenyl)amino)phenyl)acetamide], the inhibition at 10 µM was determined as 99%.
As for `CC(=O)N(C)c1ccc(Nc2cccc(N3CC(N4CCN(C(=O)c5nccs5)CC4)CC3=O)c2)cc1` (stereo not shown) [Example 117, N-methyl-N-(4-((3-(2-oxo-4-(4-(1,3-thiazol-2-ylcarbonyl)piperazin-1-yl)pyrrolidin-1-yl)phenyl)amino)phenyl)acetamide], the inhibition at 10 µM came out at 99%.
Consider `CC(=O)Nc1cccc(Nc2cccc(N3CC(N4CCN(C(=O)c5nccs5)CC4)CC3=O)c2)c1` (stereo not shown) [Example 118, N-(3-((3-(2-oxo-4-(4-(1,3-thiazol-2-ylcarbonyl)piperazin-1-yl)pyrrolidin-1-yl)phenyl)amino)phenyl)acetamide], for which the inhibition at 10 µM is 99%.
Same read-out and setting: to `O=C(c1nccs1)N1CCN(C2CC(=O)N(c3cccc(Nc4ccc(N5CCCC5=O)cc4)c3)C2)CC1` (stereo not shown) [Example 119, 1-(3-((4-(2-oxopyrrolidin-1-yl)phenyl)amino)phenyl)-4-(4-(1,3-thiazol-2-ylcarbonyl)piperazin-1-yl)pyrrolidin-2-one] belongs 100%; to `O=C1COc2ccc(Nc3cccc(N4CC(N5CCN(C(=O)c6nccs6)CC5)CC4=O)c3)cc2N1` (stereo not shown) [Example 122, 6-((3-(2-oxo-4-(4-(1,3-thiazol-2-ylcarbonyl)piperazin-1-yl)pyrrolidin-1-yl)phenyl)amino)-2H-1,4-benzoxazin-3(4H)-one], 98%.
Still for that read-out and setting: the value for `O=C1CCc2ccc(Nc3cccc(N4CC(N5CCN(C(=O)c6nccs6)CC5)CC4=O)c3)cc2N1` (stereo not shown) [Example 123, 7-((3-(2-oxo-4-(4-(1,3-thiazol-2-ylcarbonyl)piperazin-1-yl)pyrrolidin-1-yl)phenyl)amino)-3,4-dihydroquinolin-2(1H)-one] was 97%; that for `CC(=O)N1CCCC(Nc2cccc(N3CC(N4CCN(C(=O)c5nccs5)CC4)CC3=O)c2)C1` (stereo not shown) [Example 126, 1-(3-((1-acetylpiperidin-3-yl)amino)phenyl)-4-(4-(1,3-thiazol-2-ylcarbonyl)piperazin-1-yl)pyrrolidin-2-one] was 97%.
On the same count and under the same terms, to `CN1CC(Nc2cccc(N3CC(N4CCN(C(=O)c5nccs5)CC4)CC3=O)c2)CCC1=O` (stereo not shown) [Example 127, 1-methyl-5-((3-(2-oxo-4-(4-(1,3-thiazol-2-ylcarbonyl)piperazin-1-yl)pyrrolidin-1-yl)phenyl)amino)piperidin-2-one] belongs 99%; to `O=C(c1nccs1)N1CCN(C2CC(=O)N(c3ccc4c(ccn4-c4ccc(C(F)(F)F)nn4)c3)C2)CC1` (stereo not shown) [Example 128, 4-(4-(1,3-thiazol-2-ylcarbonyl)piperazin-1-yl)-1-(1-(6-(trifluoromethyl)pyridazin-3-yl)-1H-indol-5-yl)pyrrolidin-2-one], 101%; to `O=C(c1nccs1)N1CCN(C2CC(=O)N(c3ccc4c(ccn4-c4cnc(C(F)(F)F)cn4)c3)C2)CC1` (stereo not shown) [Example 129, 4-(4-(1,3-thiazol-2-ylcarbonyl)piperazin-1-yl)-1-(1-(5-(trifluoromethyl)pyrazin-2-yl)-1H-indol-5-yl)pyrrolidin-2-one], 101%.
`O=C(c1nccs1)N1CCN(C2CC(=O)N(c3cncc(-c4ccccc4)c3)C2)CC1` (stereo not shown) [Example 131, 1-(5-phenylpyridin-3-yl)-4-(4-(1,3-thiazol-2-ylcarbonyl)piperazin-1-yl)pyrrolidin-2-one]: the inhibition at 10 µM is 91%.
Regarding `Cc1cccc(C)c1-c1cccc(N2CC(N3CCN(C(=O)c4nccs4)CC3)CC2=O)c1` (stereo not shown) [Example 132, 1-(2′,6′-dimethylbiphenyl-3-yl)-4-(4-(1,3-thiazol-2-ylcarbonyl)piperazin-1-yl)pyrrolidin-2-one], the inhibition at 10 µM is 101%.
For `COc1ccccc1-c1cccc(N2CC(N3CCN(C(=O)c4nccs4)CC3)CC2=O)c1` (stereo not shown) [Example 134, 1-(2′-methoxybiphenyl-3-yl)-4-(4-(1,3-thiazol-2-ylcarbonyl)piperazin-1-yl)pyrrolidin-2-one], the inhibition at 10 µM was determined as 100%.
As to `N#Cc1ccccc1-c1cccc(N2CC(N3CCN(C(=O)c4nccs4)CC3)CC2=O)c1` (stereo not shown) [Example 135, 3′-(2-oxo-4-(4-(1,3-thiazol-2-ylcarbonyl)piperazin-1-yl)pyrrolidin-1-yl)biphenyl-2-carbonitrile], the inhibition at 10 µM was found to be 100%.
On the same count and under the same terms, to `O=C(c1nccs1)N1CCN(C2CC(=O)N(c3cccc(-c4ccccc4F)c3)C2)CC1` (stereo not shown) [Example 136, 1-(2′-fluorobiphenyl-3-yl)-4-(4-(1,3-thiazol-2-ylcarbonyl)piperazin-1-yl)pyrrolidin-2-one] belongs 102%; to `O=C(c1nccs1)N1CCN(C2CC(=O)N(c3cccc(-c4ccccc4C(F)(F)F)c3)C2)CC1` (stereo not shown) [Example 138, 4-(4-(1,3-thiazol-2-ylcarbonyl)piperazin-1-yl)-1-(2′-(trifluorornethyl)biphenyl-3-yl)pyrrolidin-2-one], 101%; to `O=C(c1nccs1)N1CCN(C2CC(=O)N(c3cccc(-c4ccccc4)n3)C2)CC1` (stereo not shown) [Example 140, 1-(6-phenylpyridin-2-yl)-4-(4-(1,3-thiazol-2-ylcarbonyl)piperazin-1-yl)pyrrolidin-2-one], 100%.
On the same count and under the same terms, the value for `O=C(c1nccs1)N1CCN(C2CC(=O)N(c3ccc4c(c3)CCN4c3ncc(C(F)(F)F)cn3)C2)CC1` (stereo not shown) [Example 141, 4-(4-(1,3-Thiazol-2-ylcarbonyl)piperazin-1-yl)-1-(1-(5-(trifluoromethyl)pyrimidin-2-yl)-2,3-dihydro-1H-indol-5-yl)pyrrolidin-2-one] was 98%; that for `CCc1ccccc1-c1cccc(N2CC(N3CCN(C(=O)c4nccs4)CC3)CC2=O)c1` (stereo not shown) [Example 142, 1-(2′-ethylbiphenyl-3-yl)-4-(4-(1,3-thiazol-2-ylcarbonyl)piperazin-1-yl)pyrrolidin-2-one] was 100%.
Turning to `Cc1cccc(-c2cccc(N3CC(N4CCN(C(=O)c5nccs5)CC4)CC3=O)c2)c1C` (stereo not shown) [Example 143, 1-(2′,3′-dirnethylbiphenyl-3-yl)-4-(4-(1,3-thiazol-2-ylcarbonyl)piperazin-1-yl)pyrrolidin-2-one], the inhibition at 10 µM is 102%.
The same measure, in the same setting: to `Cc1ccc(C)c(-c2cccc(N3CC(N4CCN(C(=O)c5nccs5)CC4)CC3=O)c2)c1` (stereo not shown) [Example 144, 1-(2′,5′-dirnethylbiphenyl-3-yl)-4-(4-(1,3-thiazol-2-ylcarbonyl)piperazin-1-yl)pyrrolidin-2-one] belongs 101%.
`O=C(c1nccs1)N1CCN(C2CC(=O)N(c3cccc(-c4c(F)cccc4F)c3)C2)CC1` (stereo not shown) [Example 145, 1-(2′,6′-Difluorobiphenyl-3-yl)-4-(4-(1,3-thiazol-2-ylcarbonyl)piperazin-1-yl)pyrrolidin-2-one]: the inhibition at 10 µM came out at 102%.
In the case of `O=C(c1nccs1)N1CCN(C2CC(=O)N(c3cccc(-c4c(Cl)cccc4Cl)c3)C2)CC1` (stereo not shown) [Example 146, 1-(2′,6′-dichlorobiphenyl-3-yl)-4-(4-(1,3-thiazol-2-ylcarbonyl)piperazin-1-yl)pyrrolidin-2-one], the inhibition at 10 µM is 100%.
The same measure, in the same setting: to `O=C(c1nccs1)N1CCN(C2CC(=O)N(c3cccc(OC(F)(F)F)c3)C2)CC1` (stereo not shown) [Example 148, 4-(4-(1,3-thiazol-2-ylcarbonyl)piperazin-1-yl)-1-(3-(trifluoromethoxy)phenyl)pyrrolidin-2-one] belongs 95%.
`Cc1ccc(-c2cccc(N3CC(N4CCN(C(=O)c5nccs5)CC4)CC3=O)c2)nc1` (stereo not shown) [Example 149, 1-(3-(5-Methylpyridin-2-yl)phenyl)-4-(4-(1,3-thiazol-2-ylcarbonyl)piperazin-1-yl)pyrrolidin-2-one]: the inhibition at 10 µM came out at 96%.
On the same count and under the same terms, to `Cc1cccc(-c2cccc(N3CC(N4CCN(C(=O)c5nccs5)CC4)CC3=O)c2)n1` (stereo not shown) [Example 150, 1-(3-(6-Methylpyridin-2-yl)phenyl)-4-(4-(1,3-thiazol-2-ylcarbonyl)piperazin-1-yl)pyrrolidin-2-one] belongs 96%.
`O=C(c1nccs1)N1CCN(C2CC(=O)N(c3cccc(-c4ncccc4Cl)c3)C2)CC1` (stereo not shown) [Example 151, 1-(3-(3-chloropyridin-2-yl)phenyl)-4-(4-(1,3-thiazol-2-ylcarbonyl)piperazin-1-yl)pyrrolidin-2-one]: the inhibition at 10 µM amounted to 99%.

The experiment is the same for the next values; noted with them: 10 μM test compound; substrate 2-arachidonylglycerol, arachidonic acid by RapidFire-mass spectrometry; 10 µM.
For orientation: % inhibition means the drop in the measured response relative to a control, in per cent. Take `Cc1cccc(-c2cccc(N3CC(N4CCN(C(=O)c5nccs5)CC4)CC3=O)c2)n1` (stereo not shown) [Example 150, 1-(3-(6-Methylpyridin-2-yl)phenyl)-4-(4-(1,3-thiazol-2-ylcarbonyl)piperazin-1-yl)pyrrolidin-2-one]: the “% inhibition at 10 μM” value was found to be 83%.
